In ChEMBL document CHEMBL1201862, “PubChem BioAssay data set” (2004):
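Assay format: 96-well plates, 48-hour exposure. The concentration for 50% growth inhibition is given as GI50.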 Activity calls are given as the source filed them. No stated cut-off is given here; in the data, active = GI50 up to about 1.1 µM and inactive = higher.

Columns and labels:
Test in all cases: inhibition of tumour cell growth, NCI panel, 48 h
[1] = system: Hs-578T
[2] = system: MCF7
[3] = system: T47D
[4] = system: 786-0
[5] = system: UO-31
[6] = system: DU-145
[7] = system: RXF 393
[8] = system: HT-29
[9] = system: MDA-N
[10] = system: KM12
[11] = system: Malme-3M
[12] = system: SK-MEL-5
[13] = system: CAKI-1
[14] = system: NCI-H226
[15] = system: HCT-116
[16] = system: SF-268
[17] = system: HOP-92
[18] = system: UACC-62
[19] = system: M14
[20] = system: NCI/ADR-RES

SMILES | GI50 [1] | GI50 [2] | GI50 [3] | GI50 [4] | GI50 [5] | GI50 [6] | GI50 [7] | GI50 [8] | GI50 [9] | GI50 [10] | GI50 [11] | GI50 [12] | GI50 [13] | GI50 [14] | GI50 [15] | GI50 [16] | GI50 [17] | GI50 [18] | GI50 [19] | GI50 [20]
COC1(CC[C@@H](C)COC2OC(CO)C(O)C(O)C2O)OC2C[C@H]3[C@@H]4CC[C@H]5C[C@@H](OC6OC(CO)C(OC7OC(CO)C(O)C(O)C7O)C(O)C6OC6OC(C)C(O)C(O)C6O)[C@H](O)C[C@]5(C)[C@H]4CC[C@]3(C)C2[C@@H]1C (stereo partly specified) | 2.52 µM (inactive) | 2.88 µM (inactive) | 3.04 µM (inactive) | 2.02 µM (inactive) | 1.79 µM (inactive) | 2.01 µM (inactive) | 2.04 µM (inactive) | 2.19 µM (inactive) | 2.19 µM (inactive) | 2.12 µM (inactive) | 1.85 µM (inactive) | 1.79 µM (inactive) | 2.01 µM (inactive) | 2.22 µM (inactive) | 1.86 µM (inactive) | 2.07 µM (inactive) | 4.24 µM (inactive) | 1.85 µM (inactive) | 1.84 µM (inactive) | 
COc1cc2c(cc1-c1coc3cc(OCC=C(C)C)ccc3c1=O)OCO2 | 28.8 µM (inactive) | 28.6 µM (inactive) | 17.7 µM (inactive) | 19.9 µM (inactive) | 31 µM (inactive) | 34.9 µM (inactive) |  |  | 6.7 µM (inactive) | 13.8 µM (inactive) |  | 16.8 µM (inactive) | 19.8 µM (inactive) |  | 17.2 µM (inactive) | 43.4 µM (inactive) | 37.3 µM (inactive) | 25.6 µM (inactive) | 26.8 µM (inactive) | 
CC/C(C)=C1\OC(=O)C(C)C(O)C(Cc2cccnc2)NC(=O)C(NC(=O)c2ncccc2O)C(C)OC1=O (stereo unspecified) | 29.7 µM (inactive) | > 100 µM (inactive) | > 100 µM (inactive) | > 100 µM (inactive) |  | > 100 µM (inactive) |  | 42.2 µM (inactive) | > 100 µM (inactive) | 42 µM (inactive) | 39.5 µM (inactive) | > 100 µM (inactive) | > 100 µM (inactive) |  | 82.2 µM (inactive) | 58.3 µM (inactive) |  | > 100 µM (inactive) | 70.6 µM (inactive) | 
c1ccc2c(c1)ccc1nc(-c3ccc4c(c3)OCO4)c3c(c12)CCC3 | 55.8 µM (inactive) | 68.1 µM (inactive) | 52.4 µM (inactive) | > 100 µM (inactive) | 78 µM (inactive) |  |  | 41.1 µM (inactive) | > 100 µM (inactive) | 34 µM (inactive) | > 100 µM (inactive) |  | > 100 µM (inactive) | > 100 µM (inactive) | 88.9 µM (inactive) | > 100 µM (inactive) |  | > 100 µM (inactive) | > 100 µM (inactive) | 59.2 µM (inactive)
Cn1/c(=N\S(=O)(=O)c2ccccc2)n(S(=O)(=O)c2ccccc2)c2ccccc21 | 41.8 µM (inactive) |  | 40.6 µM (inactive) | 88.5 µM (inactive) | 34.7 µM (inactive) | 72.8 µM (inactive) | 95.5 µM (inactive) | 35.6 µM (inactive) | 61.5 µM (inactive) | 26.2 µM (inactive) | 47.6 µM (inactive) | 35.7 µM (inactive) | > 100 µM (inactive) | 50.2 µM (inactive) | 48.9 µM (inactive) | 54.1 µM (inactive) | > 10 µM (inactive) | > 100 µM (inactive) | 53.7 µM (inactive) | 38.6 µM (inactive)
CCOC(=O)c1c(N2CCCC2)nsc1Nc1ccc(F)cc1 | 40.9 µM (inactive) |  | 9.57 µM (inactive) | 26.1 µM (inactive) | 16 µM (inactive) | 45.3 µM (inactive) | 13.6 µM (inactive) | 23.6 µM (inactive) | 34.9 µM (inactive) | 42.2 µM (inactive) | 21.9 µM (inactive) | 18 µM (inactive) | 37.5 µM (inactive) | 60.4 µM (inactive) | 29.7 µM (inactive) | 73.6 µM (inactive) | 28.7 µM (inactive) | 45.4 µM (inactive) | 48.8 µM (inactive) | 34 µM (inactive)
Nc1nc(Cl)c(N)c(NCC2(CO)CC(CCCc3ccccc3)C2)n1 (stereo unspecified) | 36.7 µM (inactive) | 8.02 µM (inactive) | 5.27 µM (inactive) | 22.7 µM (inactive) | 12.9 µM (inactive) | 68.7 µM (inactive) |  |  | 19.3 µM (inactive) | 21.5 µM (inactive) | 1.26 µM (inactive) |  | 34.8 µM (inactive) | 2.91 µM (inactive) | 0.495 µM (active) | 23 µM (inactive) | 51.1 µM (inactive) | 24.1 µM (inactive) | 22 µM (inactive) | 
Cn1c(=O)c2c(ncn2CCNC(CO)C(O)c2ccc([N+](=O)[O-])cc2)n(C)c1=O (stereo unspecified) | > 10 µM (inactive) | > 100 µM (inactive) | 5.64 µM (inactive) | > 100 µM (inactive) | > 100 µM (inactive) |  |  | > 100 µM (inactive) | > 100 µM (inactive) | > 100 µM (inactive) | > 100 µM (inactive) | > 100 µM (inactive) | > 100 µM (inactive) | > 100 µM (inactive) | > 100 µM (inactive) | > 100 µM (inactive) | > 100 µM (inactive) | > 100 µM (inactive) | > 100 µM (inactive) | > 100 µM (inactive)
C[C@@H]1C(=O)C[C@H]2C(C)(C)CCC[C@]2(C)[C@@]1(O)CCc1ccoc1 | 89.5 µM (inactive) | > 100 µM (inactive) | 82 µM (inactive) | > 100 µM (inactive) | 55.1 µM (inactive) | > 100 µM (inactive) | > 100 µM (inactive) | > 100 µM (inactive) | > 100 µM (inactive) | > 100 µM (inactive) | > 100 µM (inactive) | > 100 µM (inactive) | > 100 µM (inactive) | 13.4 µM (inactive) | > 100 µM (inactive) | 96.4 µM (inactive) | > 100 µM (inactive) | > 100 µM (inactive) | > 100 µM (inactive) | 
CC(=O)[C@]1(O)Cc2c(O)c3c(c(O)c2[C@@H](OC2CC(N)C(O)C(C)O2)C1)C(=O)c1c(OCc2ccccc2)cccc1C3=O (stereo partly specified) | 0.619 µM (active) |  | 2.32 µM (inactive) | 1.08 µM (active) | 2.28 µM (inactive) | 1.63 µM (inactive) | 2.63 µM (inactive) | 1.51 µM (inactive) | 1.58 µM (inactive) | 1.41 µM (inactive) | 3.33 µM (inactive) | 1.71 µM (inactive) | 1.64 µM (inactive) | 1.09 µM (active) | 0.605 µM (active) | 1.75 µM (inactive) | 3.18 µM (inactive) | 1.73 µM (inactive) | 1.49 µM (inactive) | 
CC(Oc1ccc(Oc2cnc3ccc(Cl)cc3n2)cc1)C(=O)O (stereo unspecified) | > 62.2 µM (inactive) | 26.6 µM (inactive) | 84.1 µM (inactive) | > 81.1 µM (inactive) | 72.1 µM (inactive) |  | > 81.8 µM (inactive) | > 95.3 µM (inactive) | > 86.7 µM (inactive) | > 84.5 µM (inactive) | > 45 µM (inactive) | 72.3 µM (inactive) | 64.1 µM (inactive) |  | 58.7 µM (inactive) | > 100 µM (inactive) |  | 65.3 µM (inactive) | > 91.6 µM (inactive) | > 95.3 µM (inactive)
